Test results as given in patent US10508085B2, “Compounds and methods for IDO and TDO modulation, and indications therefor” (Plexxikon Inc., priority 2016, dated 2019).

Key:
[1] = biological target: T1, Human Tryptophan 2,3-dioxygenase (TDO) (Homo sapiens, UniProt P48775); assay: Human TDO enzymatic assay (kynurenine level); assay type: biochemical; settings: 1 nM TDO, 350 μM L-Trp; geometric mean; read-out: TDO GMean: IC50 (μM) (Biochemical Assay)
T1 construct: His tag (N); made in house; host or cells: E. coli
Experimental: (§1) Human Indoleamine 2,3-dioxygenase (IDO) and Tryptophan 2,3-dioxygenase (TDO) enzymatic assay
(§2) Human IDO or TDO with N-terminal His tag is purified in E. coli. The IDO enzymatic assay is performed using 6 nM IDO and 10 μM L-Trp in the presence of 10 mM ascorbic acid, 5 μM methylene blue, 100 nM catalase and 0.01% Tween 20 in 50 mM sodium phosphate buffer (pH 6.5). 19 μL of above reaction mixture is added to wells of 384 well reaction plate containing […] of various concentrations of test compound or DMSO vehicle and incubated for 20 minutes at room temperature. The TDO enzymatic reaction assay is performed using 1 nM TDO and 350 μM L-Trp in the presence of 10 mM ascorbic acid, 0.4 μM methylene blue, 100 nM catalase and 0.01% Tween 20 in 50 mM sodium phosphate buffer (pH 6.5). 19 μL of above reaction mixture is added to wells of 384 well reaction plate containing 1 μL of various concentrations of test compound or DMSO vehicle and incubated for 70 minutes at room temperature. 16 wells containing all the components of reaction mixture and 5% DMSO serve as high control. 16 well containing all the components except enzyme of reaction mixture and 5% DMSO serves as low control. Both IDO and TDO enzymatic reactions are stopped by addition of […] of 30% TCA and incubated 30 minutes at 50° C. to hydrolyze N-formylkynurenine produced by IDO or TDO to kynurenine. Upon measuring the kynurenine level, the percentage inhibition is calculated at individual concentrations relative to high and low controls. The data is analyzed by using nonlinear regression to generate IC50 values.

[2] = biological target: T2, Human Indoleamine 2,3-dioxygenase (IDO) (Homo sapiens, UniProt P14902); assay: Human IDO enzymatic assay (kynurenine level); assay type: biochemical; settings: 6 nM IDO, 10 μM L-Trp; geometric mean; read-out: IDO1 GMean: IC50 (μM) (Biochemical Assay)
T2 construct: His tag (N); made in house; host or cells: E. coli
Experimental: as §1, §2

T2 sequence (P14902 whole entry): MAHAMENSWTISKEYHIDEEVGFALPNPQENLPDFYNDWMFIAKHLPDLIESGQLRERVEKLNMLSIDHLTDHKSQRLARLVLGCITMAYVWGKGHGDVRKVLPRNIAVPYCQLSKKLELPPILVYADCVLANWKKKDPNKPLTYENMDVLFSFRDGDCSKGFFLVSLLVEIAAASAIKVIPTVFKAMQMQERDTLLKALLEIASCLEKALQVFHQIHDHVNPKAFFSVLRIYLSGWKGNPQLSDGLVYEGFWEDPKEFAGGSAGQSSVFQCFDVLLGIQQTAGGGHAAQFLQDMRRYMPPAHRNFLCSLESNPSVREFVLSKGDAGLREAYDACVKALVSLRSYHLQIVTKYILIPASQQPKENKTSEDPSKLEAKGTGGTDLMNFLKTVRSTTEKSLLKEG
T1 sequence (P48775 whole entry): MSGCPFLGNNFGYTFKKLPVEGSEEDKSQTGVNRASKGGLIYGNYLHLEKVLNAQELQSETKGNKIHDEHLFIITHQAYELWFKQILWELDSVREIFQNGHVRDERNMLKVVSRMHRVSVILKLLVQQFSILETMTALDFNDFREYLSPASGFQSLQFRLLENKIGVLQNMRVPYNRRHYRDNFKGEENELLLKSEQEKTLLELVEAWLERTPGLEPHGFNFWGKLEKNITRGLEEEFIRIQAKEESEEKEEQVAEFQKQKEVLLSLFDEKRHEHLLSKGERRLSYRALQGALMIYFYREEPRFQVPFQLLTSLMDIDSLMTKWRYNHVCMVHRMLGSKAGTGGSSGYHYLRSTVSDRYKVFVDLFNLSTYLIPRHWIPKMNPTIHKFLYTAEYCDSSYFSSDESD

SMILES	IC50 [1]	IC50 [2]
CC(C)(C1CCN(C(=O)Nc2ccc(Cl)nc2)CC1)C(O)c1cc(Cl)cc2cn[nH]c12 (centres unmarked) [Compound P-0604, 4-(1-(5-chloro-1H-indazol-7-yl)-1-hydroxy-2-methylpropan-2-yl)-N-(6-chloropyridin-3-yl)piperidine-1-carboxamide]	0.0001 to 10 µM	0.0001 to 10 µM
CC(C)(C1CCN(C(=O)CC2CC2)CC1)C(O)c1cc(Cl)cc2[nH]ncc12 (centres unmarked) [Compound P-0608, 1-(4-(1-(6-chloro-1H-indazol-4-yl)-1-hydroxy-2-methylpropan-2-yl)piperidin-1-yl)-2-cyclopropylethan-1-one]	0.0001 to 10 µM	0.0001 to 10 µM
O=C(CC1CCS(=O)(=O)CC1)N1CCC(C(F)(F)[C@H](O)c2c3c(cc4cn[nH]c24)CC3)CC1 [Compound P-0624, (R)-1-(4-(2-(5,6-dihydro-1H-cyclobuta[f]indazol-7-yl)-1,1-difluoro-2-hydroxyethyl)piperidin-1-yl)-2-(1,1-dioxidotetrahydro-2H-thiopyran-4-yl)ethan-1-one]	0.0001 to 10 µM	0.0001 to 10 µM
CC(C)(C1CCN(C(N)=O)CC1)C(O)c1cc(Cl)cc2[nH]ncc12 (centres unmarked) [Compound P-0606, 4-(1-(6-chloro-1H-indazol-4-yl)-1-hydroxy-2-methylpropan-2-yl)piperidine-1-carboxamide]	0.0001 to 10 µM	0.0001 to 10 µM
CCNC(=O)N1CCC(C(F)(F)[C@H](O)c2c3c(cc4cn[nH]c24)CC3)CC1 [Compound P-0627, (R)-4-(2-(5,6-dihydro-1H-cyclobuta[f]indazol-7-yl)-1,1-difluoro-2-hydroxyethyl)-N-ethylpiperidine-1-carboxamide]	0.0001 to 10 µM	0.0001 to 10 µM
CC(C)(C1CCN(C(=O)NCCNS(C)(=O)=O)CC1)[C@H](O)c1cc(Cl)cc2cn[nH]c12 [Compound P-0677, (S)-4-(1-(5-chloro-1H-indazol-7-yl)-1-hydroxy-2-methylpropan-2-yl)-N-(2-(methylsulfonamido)ethyl)piperidine-1-carboxamide]	0.0001 to 10 µM	0.0001 to 10 µM
CC(C)(C1CCN(C(=O)NCCN2CCCS2(=O)=O)CC1)[C@H](O)c1cc(Cl)cc2cn[nH]c12 [Compound P-0678, (S)-4-(1-(5-chloro-1H-indazol-7-yl)-1-hydroxy-2-methylpropan-2-yl)-N-(2-(1,1-dioxidoisothiazolidin-2-yl)ethyl)piperidine-1-carboxamide]	0.0001 to 10 µM	0.0001 to 10 µM
O=C(NCC1CC1)N1CCC(C(F)(F)[C@H](O)c2c3c(cc4cn[nH]c24)CC3)CC1 [Compound P-0631, (R)-N-(cyclopropylmethyl)-4-(2-(5,6-dihydro-1H-cyclobuta[f]indazol-7-yl)-1,1-difluoro-2-hydroxyethyl) piperidine-1-carboxamide]	0.0001 to 10 µM	0.0001 to 10 µM
OC(c1ccccc1Cl)c1cccc2cncn12 (centres unmarked) [Compound P-0077, (2-chlorophenyl)(imidazo[1,5-a]pyridin-5-yl)methanol]	10 to 100 µM	> 200 µM
OC(c1cccc(N2CCCCC2)c1)c1cccc2cncn12 (centres unmarked) [Compound P-0073, imidazo[1,5-a]pyridin-5-yl(3-(piperidin-1-yl)phenyl)methanol]	10 to 100 µM	0.0001 to 10 µM
CC(C)(C1CCN(C(=O)N[C@@H]2CCOC2)CC1)[C@H](O)c1cc(Cl)cc2cn[nH]c12 [Compound P-0593, 4-((S)-1-(5-chloro-1H-indazol-7-yl)-1-hydroxy-2-methylpropan-2-yl)-N-((R)-tetrahydrofuran-3-yl)piperidine-1-carboxamide]	0.0001 to 10 µM	0.0001 to 10 µM
OC(c1cccc2cncn12)C1CCOCC1 (centres unmarked) [Compound P-0075, imidazo[1,5-a]pyridin-5-yl(tetrahydro-2H-pyran-4-yl)methanol]	0.0001 to 10 µM	0.0001 to 10 µM
CC(C)(C1CCN(C(=O)N[C@H]2C[C@H](O)C2)CC1)[C@H](O)c1cc(Cl)cc2cn[nH]c12 [Compound P-0600, 4-((S)-1-(5-chloro-1H-indazol-7-yl)-1-hydroxy-2-methylpropan-2-yl)-N-((1r,3S)-3-hydroxycyclobutyl) piperidine-1-carboxamide]	0.0001 to 10 µM	0.0001 to 10 µM
O=C(C1CC1)N1CCC(C(F)(F)[C@H](O)c2c3c(cc4cn[nH]c24)CC3)CC1 [Compound P-0611, (R)-cyclopropyl(4-(2-(5,6-dihydro-1H-cyclobuta[f]indazol-7-yl)-1,1-difluoro-2-hydroxyethyl)piperidin-1-yl)methanone]	0.0001 to 10 µM	0.0001 to 10 µM
CC(C)(C1CCN(C(=O)NC2(C#N)CC2)CC1)[C@H](O)c1cc(Cl)cc2cn[nH]c12 [Compound P-0672, (S)-4-(1-(5-chloro-1H-indazol-7-yl)-1-hydroxy-2-methylpropan-2-yl)-N-(1-cyanocyclopropyl) piperidine-l-carboxamide]	0.0001 to 10 µM	0.0001 to 10 µM
CONC(=O)N1CCC(C(C)(C)[C@H](O)c2cc(Cl)cc3cn[nH]c23)CC1 [Compound P-0598, (S)-4-(1-(5-chloro-1H-indazol-7-yl)-1-hydroxy-2-methylpropan-2-yl)-N-methoxypiperidine-1-carboxamide]	0.0001 to 10 µM	0.0001 to 10 µM
O=C(C1CCOCC1)N1CCC(C(F)(F)[C@H](O)c2c3c(cc4cn[nH]c24)CC3)CC1 [Compound P-0618, (R)-(4-(2-(5,6-dihydro-1H-cyclobuta[f]indazol-7-yl)-1,1-difluoro-2-hydroxyethyl)piperidin-1-yl)(tetrahydro-2H-pyran-4-yl)methanone]	0.0001 to 10 µM	0.0001 to 10 µM
CC(C)(C1CCN(C(=O)Nc2ccc(F)cn2)CC1)[C@H](O)c1cc(Cl)cc2cn[nH]c12 [Compound P-0658, (S)-4-(1-(5-chloro-1H-indazol-7-yl)-1-hydroxy-2-methylpropan-2-yl)-N-(5-fluoropyridin-2-yl)piperidine-1-carboxamide]	0.0001 to 10 µM	0.0001 to 10 µM
O=C(Cc1ccc(Cl)c(F)c1)N1CCC(C(F)(F)[C@H](O)c2c3c(cc4cn[nH]c24)CC3)CC1 [Compound P-0626, (R)-2-(4-chloro-3-fluorophenyl)-1-(4-(2-(5,6-dihydro-1H-cyclobuta[f]indazol-7-yl)-1,1-difluoro-2-hydroxyethyl)piperidin-1-yl) ethan-1-one]	0.0001 to 10 µM	0.0001 to 10 µM
CC(C)(C1CCN(C(=O)NCCF)CC1)[C@H](O)c1cc(Cl)cc2cn[nH]c12 [Compound P-0580, (S)-4-(1-(5-chloro-1H-indazol-7-yl)-1-hydroxy-2-methylpropan-2-yl)-N-(2-fluoroethyl) piperidine-1-carboxamide]	0.0001 to 10 µM	0.0001 to 10 µM
CCC(=O)N1CCC(C(F)(F)[C@H](O)c2cc(Cl)cc3cn[nH]c23)CC1 [Compound P-0574, (R)-1-(4-(2-(5-chloro-1H-indazol-7-yl)-1,1-difluoro-2-hydroxyethyl)piperidin-1-yl)propan-1-one]	0.0001 to 10 µM	0.0001 to 10 µM
O=C(Cc1ccnc(Cl)c1)N1CCC(C(F)(F)C(O)c2cc(Cl)cc3[nH]ncc23)CC1 (centres unmarked) [Compound P-0657, 1-(4-(2-(6-chloro-1H-indazol-4-yl)-1,1-difluoro-2-hydroxyethyl)piperidin-1-yl)-2-(2-chloropyridin-4-yl)ethan-1-one]	0.0001 to 10 µM	0.0001 to 10 µM
